Results taken from publication PMC7259638, “Characterization of the intestinal absorption of morroniside from Cornus officinalis Sieb. et Zucc via a Caco-2 cell monolayer model” (PLoS ONE, 2020).
Where two headings read alike, the source gives them in different places.

Experiments:
[1] = Transport of morroniside across Caco-2 cell monolayers (bidirectional, concentration and pH); format: in vitro ADME, human; conditions: human
Method: (§1) An initial stock solution of morroniside in methanol was prepared. The stock solution was then diluted with HBSS (pH = 7.4) and the final concentration of methanol in HBSS remained at 0.5%. […] Caco-2 cells were seeded at a density of 5 × 10^4 cells/cm^2 in a 12-well plate. The transepithelial electrical resistance (TEER) value was measured with a Millipore ERS voltameter (Burlington, MA, USA) in order to evaluate and determine monolayer integrity. The monolayers were ready for experiments 19 to 22 days after seeding.
(§2) During incubation, the culture medium was refreshed every other day. The culture medium was discarded, and 500 μL of HBSS was added to each well and incubated for 20 min at 37 °C. Afterward, each well was rinsed two times with HBSS at 37 °C. Three concentrations of morroniside (5, 25 and 100 μM) were added to either the apical (AP, 0.5 mL) or basolateral side (BL, 1.5 mL), wheras the receiving chamber contained the corresponding volume of blank HBSS medium (pH = 7.4). Incubation was performed at 37 °C for 180 min, with shaking at 50 rpm. To assess drug transport from the AP to BL side, after incubation for 5, 15, 30, 45, 60, 90, 120 or 180 min, 50 μL of the solution from the BL or AP side was collected, and replaced with an equal volume of HBSS. To study the effect of pH on morroniside (5, 25 and 100 μM) transport, the experiments were performed in HBSS, which was adjusted to pH 6.0 or pH 7.4 on the AP side depending on the experiment, and to pH 7.4 on the BL side at 37 °C.
(§3) UPLC-MS/MS data acquisition was performed using Analyst 1.5.2 and MultiQuant 2.1.1 software (Applied Biosystems). All data are shown as the mean ± standard deviation, n = 3. The data were analyzed using SPSS 20.0. In the Caco-2 cell model, the rate of transport was obtained from the amount transported versus the time curve using linear regression. The permeability coefficient of each compound was calculated using the following equation: Papp = (dQ/dt)/(A·C0).
(§4) where, dQ/dt is the rate of drug transport, C0 is the initial concentration of the compound in the donor chamber and A represents the surface area of the cell monolayer. The efflux ratio P was determined by calculating the ratio of Papp in the secretory (BA) direction divided by that in the absorptive (AB) direction, according to the following equation: P=PappBA/PappAB

Caco-2 cell monolayers = assay: as above; format: in vitro ADME, human; conditions: for PappAB AP-BL: AP to BL; for PappAB AP-BL / PappAB BL-AP: pH 7.4; for PappAB AP-BL / PappAB BL-AP / PappAB: 37 °C, n = 3; for PappAB BL-AP: BL to AP
Method: as §1, §2, §3, §4

Caco-2 cells = assay: MTT cytotoxicity assay; format: cell-based, human; conditions: for Survival Rates (%, mean): Caco-2 cells, five replicates
Method: The conditions for Caco-2 cell culture have been described previously. Briefly, Caco-2 cells were cultured in a humidified atmosphere of 5% CO2 and 95% air at 37 °C. The culture medium (DMEM) was supplemented with 10% (v/v) fetal bovine serum, 1% nonessential amino acids, 1% penicillin, and streptomycin. The medium was changed every 2–3 days. When the cell monolayer reached 80–90% confluence, the cells were detached with a solution of trypsin (0.5 mg/mL) and EDTA (0.2 mg/mL) and reseeded at a density of 5×10^4 cells/cm^2.
For the cytotoxicity assay, the cells were incubated in 96-well plates for 24 h. Morroniside dissolved in methanol was diluted with DMEM to terminal concentrations that ranged from 0.1 μM to 200 μM, or CO at 0.63 mg/mL (containing 25 μM morroniside). A negative control group was obtained by the addition of DMEM with methanol at 0.5%(v/v). The cell culture medium treated group was treated only with DMEM. MTT solution was prepared to 1 mg/mL in phosphate-buffered saline and filtered through a 0.2 μm filter. Then, 20 μL of MTT was added into each well. Cells were incubated for 4 h at 37 °C with 5% CO2, 95% air and 100% humidity. After 4 h, the MTT solution was removed and replaced with 150 μL of DMSO. The plate was further incubated for 5 min at room temperature (20 °C), and the optical density of the wells was measured using a plate reader at a wavelength of 490 nm.

[2] = parameters: method as in PMID 17596900, doi:10.1177/1934578X19856526; conditions: rats; oral vs intravenous; cited from earlier work

- Papp A→B at 180 min, 5 μM ([1]; Caco-2, AP side pH 6.0, BL side pH 7.4, 5μM morroniside, 37 °C, n = 3, read-out: PappAB): 0.55 ± 0.07 ×10⁻⁶ cm/s
- Papp A→B at 180 min, 100 μM ([1]; Caco-2, AP side pH 6.0, BL side pH 7.4, 100μM morroniside, 37 °C, n = 3, read-out: PappAB): 0.62 ± 0.1 ×10⁻⁶ cm/s
- Papp A→B at 180 min, 5 μM ([1]; Caco-2, pH 7.4, 5 μM morroniside, AP to BL, over 3 h, read-out: Papp (AP to BL)): 2.66 ×10⁻⁶ cm/s
- Papp A→B at 180 min, 25 μM ([1]; Caco-2, pH 7.4, 25 μM morroniside, AP to BL, pH 7.4, 37 °C, n = 3, read-out: PappAB AP-BL): 1.83 ± 0.65 ×10⁻⁶ cm/s
- Papp A→B at 180 min, 100 μM ([1]; Caco-2, pH 7.4, 100 μM morroniside, AP to BL, over 3 h, read-out: Papp (AP to BL)): 1.59 ×10⁻⁶ cm/s
- Papp A→B at 180 min, 5 μM ([1]; Caco-2, pH 7.4, AP side pH 7.4, 5μM morroniside, 37 °C, n = 3, read-out: PappAB): 1.88 ± 0.49 ×10⁻⁶ cm/s
- Papp A→B at 180 min, 25 μM ([1]; Caco-2, pH 7.4, AP side pH 7.4, 25μM morroniside, 37 °C, n = 3, read-out: PappAB): 1.92 ± 0.52 ×10⁻⁶ cm/s
- Papp A→B at 180 min ([1]; Caco-2, pH 7.4, range over 5, 25 and 100 μM, AP-to-BL, read-out: apparent permeability coefficient (Papp) AP-to-BL): 1.59 to 2.66 ×10⁻⁶ cm/s
- Papp B→A at 180 min, 5 μM ([1]; Caco-2, pH 7.4, 5 μM morroniside, BL to AP, over 3 h): 4.1 ×10⁻⁶ cm/s
- Papp B→A at 180 min, 100 μM ([1]; Caco-2, pH 7.4, 100 μM morroniside, BL to AP, over 3 h): 2.67 ×10⁻⁶ cm/s
- Papp B→A at 180 min ([1]; Caco-2, pH 7.4, range over 5, 25 and 100 μM, BL-to-AP, read-out: apparent permeability coefficient (Papp) BL-to-AP): 2.67 to 4.1 ×10⁻⁶ cm/s
- Papp B→A at 180 min, 25 μM ([1]; Caco-2, 25 μM morroniside, BL to AP, pH 7.4, 37 °C, n = 3, read-out: PappAB BL-AP): 2.92 ± 0.63 ×10⁻⁶ cm/s
- PappAB AP-BL (Caco-2 cell monolayers; 5 μM morroniside): 2.66±0.60 ×10^-6cm/s
- PappAB BL-AP (Caco-2 cell monolayers; 5 μM morroniside): 4.10±0.86 ×10^-6cm/s
- PappAB AP-BL (Caco-2 cell monolayers; 100 μM morroniside): 1.59±0.41 ×10^-6cm/s
- PappAB BL-AP (Caco-2 cell monolayers; 100 μM morroniside): 2.67±0.48 ×10^-6cm/s
- PappAB (Caco-2 cell monolayers; AP side pH 6.0, BL side pH 7.4, 25μM morroniside): 0.61±0.15 ×10^-6cm/s
- PappAB (Caco-2 cell monolayers; AP side pH 7.4, 100μM morroniside): 1.86±0.33 ×10^-6cm/s
- intestinal absorption assessed from Papp level (Caco-2 cell monolayers; Papp values at the level of 10^−6, Caco-2 transwell): poor intestinal absorption
- PappAB at pH 7.4 compared with pH 6.0 (Caco-2 cell monolayers; three concentrations (5, 25, 100 μM), p<0.05): significantly higher
Structure (SMILES): COC(=O)C1=CO[C@@H](O[C@@H]2O[C@H](CO)[C@@H](O)[C@H](O)[C@H]2O)[C@@H]2[C@H](C)O[C@@H](O)C[C@H]12 [morroniside, Morroniside]
- Survival Rates (%, mean) (Caco-2 cells; 0.1 μM): 105.12%
- Survival Rates (%, mean) (Caco-2 cells; 1 μM): 108.33%
- Survival Rates (%, mean) (Caco-2 cells; 5 μM): 101.62%
- Survival Rates (%, mean) (Caco-2 cells; 10 μM): 102.41%
- Survival Rates (%, mean) (Caco-2 cells; 50 μM): 95.21%
- Survival Rates (%, mean) (Caco-2 cells; 100 μM): 91.77%
- Survival Rates (%, mean) (Caco-2 cells; 200 μM): 90.72%
- reduction of viability of Caco-2 cells (Caco-2 cells; highest concentration (200 μM)): 8%
- cytotoxicity toward Caco-2 cells (in words) (Caco-2 cells; morroniside 0.1 to 200 μM): nontoxic
- absolute oral bioavailability [2]: 3.6–7.0%
